Test results as given in patent publication US9056842B2, “Cosmetic use of substituted amino heterocylic carbamoyl analogs and related compounds” (Avon Products, Inc., priority 2011, dated 2015).

System: Human dermal fibroblasts
Assay: Stimulation of collagen synthesis, procollagen type I C-peptide (PIP) EIA on conditioned medium
Assay type: cell-based
Conditions: compound at 0.0005% in DMSO, triplicate, 48-hour incubation; increase in collagen over the DMSO control
Experimental: Human dermal fibroblasts (Cascade Biologics, Portland, Oreg.) were plated at 10,000 cells/well in 96-well culture plates in supplemented medium (DMEM, 10% Fetal Bovine Serum, 1% Penicillin/Streptomycin and 1% L-Glutamine) overnight in humidified atmosphere of 10% CO2 at 37° C. […] DMSO solution was used a control. Following 48-hour incubation, the plates were removed from the incubator and the medium from each well was collected for the procollagen assay. Collagen production was measured using procollagen type I C-peptide (PIP) EIA kit (Takara Bio, Inc., Japan). […] The ELISA plate was incubated at 37° C. for 3 hours before the wells were washed four times with 400 μl of 1×PBS. At the end of wash, 100 μl of substrate solution (supplied with kit) was added to the wells and incubated at room temperature for 15 minutes. The reaction was stopped by adding 100 μl of 1N sulfuric acid to the wells. The absorbance was measured on a spectrophotometer at 450 nm wavelength. The amount of procollagen peptide in the conditioned medium was calculated from the standard curve. The stimulation of collagen production was shown as an increase in collagen over the control.

SMILES	% Collagen Stimulation [%]
CCOCCCNC(=O)c1coc(CN(CCCOCC)C(=O)c2cccc(Br)c2)n1 [Compound 1]	68.77
CCOCCCNC(=O)c1coc(CN(CCCOCC)C(=O)c2ccc(Cl)cc2)n1 [Compound 2]	67.86
